Laboratory results published in patent US20050009103A1, “Methods of precise molecular-level determination of ligand-receptor interactions and designing selective drug compounds based on said interactions” (priority 2003, published 2005).
Where two headings read alike, the source gives them in different places.

Legend:
[1] = tested on: Mouse muscle embryonic nAChR, Tah α150 (ester carbonyl of Trp α149), Leu9′Ser mutation in M2 of the β subunit; type: cell-based
Method: (§1) Unnatural amino acids were incorporated into the nAChR using in vivo nonsense suppression methods, and mutant receptors were evaluated electrophysiologically (Dougherty, D. A. (2000) Curr. Opin. Chem. Biol. 4:645-652).
(§2) In studies of weak agonists and/or receptors with diminished binding capability, it is necessary to introduce another mutation that independently decreases EC50. This was accomplished via a Leu-to-Ser mutation in the β subunit at a site known as 9′ in the M2 transmembrane region of the receptor. This M2-β9′ site is almost 50 Å from the binding site, and previous work has shown that a Leu9′Ser mutation lowers the EC50 by a factor of roughly 10 without altering trends in EC50 values (Beene, D. L., et al. (2002) Biochem. 41:10262-9; and Kearney, P. C., et al. (1996) Mil. Pharmacol. 50:1401-1412). […] It is important to note that the EC50 value is not a binding constant, but a composite of equilibria for both binding and gating.
(§3) To evaluate this possibility, the backbone amide at this position was converted to an ester by replacing Thr α150 with the analog α-hydroxy threonine (Tah) using the nonsense suppression methodology (FIG. 9a). Converting an amide carbonyl to an ester carbonyl weakens the hydrogen bonding ability of the oxygen, an effect that has been estimated to be worth ˜[…] (Koh, J. T., et al. (1997) Biochem. 36:11314-22).
(§4) Stage VI oocytes of Xenopus laevis were employed. Oocyte recordings were made 24 to 48 h post injection in two-electrode voltage clamp mode using the OpusXpress™ 6000A (Axon Instruments, Union City, Calif.). Oocytes were superfused with Ca^2+-free ND96 solution at flow rates of 1 ml/min, 4 ml/min during drug application and 3 ml/min during wash. Holding potentials were −60 mV. Data were sampled at 125 Hz and filtered at 50 Hz. Drug applications were 15 s in duration. […] All drugs were prepared in sterile ddi water for dilution into calcium-free ND96. Dose-response data were obtained for a minimum of 10 concentrations of agonists and for a minimum of 7 cells. Dose-response relations were fitted to the Hill equation to determine EC50 and Hill coefficient. EC50 for individual oocytes were averaged to obtain the reported values.
(§5) Synthetic amino acids and α-hydroxy acids were conjugated to the dinucleotide dCA and ligated to truncated 74 nt tRNA as previously described in England, P. M., et al. (1999) supra; and Nowak, M. W., et al. (1998) Methods Enzymol. 293:504-529. Deprotection of amino acyl tRNA was carried out by photolysis immediately prior to co-injection with mRNA, as described in Nowak M. W., et al. (1998) supra; and Li, L. T., et al. (2001) Chem. Biol. 8:47-58. Typically, 25 ng of tRNA were injected per oocyte along with mRNA in a total volume of 50 nl/cell. mRNA was prepared by in vitro runoff transcription using the Ambion (Austin, Tex.) mMessage mMachine kit. Mutation to the amber stop codon at the site of interest was accomplished by standard means and was verified by sequencing through both strands. For nAChR suppression, a total of 4.0 ng of mRNA was injected in the subunit ratio of 10:1:1:1 α:β:γ:δ. In all cases, the β subunit contained a Leu9′Ser mutation, as discussed above. Mouse muscle embryonic nAChR in the pAMV vector was used. In addition, the α subunits contain an HA epitope in the M3-M4 cytoplasmic loop for biochemical studies. […] As a negative control for suppression, truncated 74 nt or truncated tRNA ligated to dCA was co-injected with mRNA in the same manner as fully charged tRNA. […] The positive control for suppression involved wild-type recovery by co-injection with 74 nt tRNA ligated to dCA-Thr or dCA-Trp.

[2] = tested on: Mouse muscle embryonic nAChR, 4,5,6,7-F4-Trp at α149, Leu9′Ser mutation in M2 of the β subunit; experiment: Two-electrode voltage clamp of Xenopus oocytes expressing nAChR, F4-Trp at α149; type: cell-based
Method: as §1, §2
Stage VI oocytes of Xenopus laevis were employed. Oocyte recordings were made 24 to 48 h post injection in two-electrode voltage clamp mode using the OpusXpress™ 6000A (Axon Instruments, Union City, Calif.). Oocytes were superfused with Ca^2+-free ND96 solution at flow rates of 1 ml/min, 4 ml/min during drug application and 3 ml/min during wash. Holding potentials were −60 mV. Data were sampled at 125 Hz and filtered at 50 Hz. […]

[3] = biological target: T1, Mouse muscle embryonic nAChR, Tah α150 (ester carbonyl of Trp α149), Leu9′Ser mutation in M2 of the β subunit (Mus musculus, UniProt P02716+P04756+P04760); type: cell-based; settings: read-out: EC50, Tah at α150
T1 construct: other: ± standard error of the mean; backbone ester; β Leu9′Ser; Mouse muscle embryonic nAChR in the pAMV vector was used
T1 sequence (P02716 25-520 limits assumed, change not shown): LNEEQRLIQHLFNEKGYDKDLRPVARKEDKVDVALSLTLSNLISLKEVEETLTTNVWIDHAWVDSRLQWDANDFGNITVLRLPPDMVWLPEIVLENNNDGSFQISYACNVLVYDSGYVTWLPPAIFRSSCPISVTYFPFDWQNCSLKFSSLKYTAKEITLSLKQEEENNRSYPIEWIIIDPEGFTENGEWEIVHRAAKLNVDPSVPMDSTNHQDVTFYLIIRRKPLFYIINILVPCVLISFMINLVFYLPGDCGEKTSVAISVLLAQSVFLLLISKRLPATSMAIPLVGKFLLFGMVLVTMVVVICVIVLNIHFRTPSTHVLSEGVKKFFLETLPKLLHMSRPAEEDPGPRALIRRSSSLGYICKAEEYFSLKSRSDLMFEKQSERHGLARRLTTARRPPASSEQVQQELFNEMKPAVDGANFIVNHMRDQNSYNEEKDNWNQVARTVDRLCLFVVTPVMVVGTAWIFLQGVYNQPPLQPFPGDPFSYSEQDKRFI
T1 sequence (P04756 21-457 limits assumed, change not shown): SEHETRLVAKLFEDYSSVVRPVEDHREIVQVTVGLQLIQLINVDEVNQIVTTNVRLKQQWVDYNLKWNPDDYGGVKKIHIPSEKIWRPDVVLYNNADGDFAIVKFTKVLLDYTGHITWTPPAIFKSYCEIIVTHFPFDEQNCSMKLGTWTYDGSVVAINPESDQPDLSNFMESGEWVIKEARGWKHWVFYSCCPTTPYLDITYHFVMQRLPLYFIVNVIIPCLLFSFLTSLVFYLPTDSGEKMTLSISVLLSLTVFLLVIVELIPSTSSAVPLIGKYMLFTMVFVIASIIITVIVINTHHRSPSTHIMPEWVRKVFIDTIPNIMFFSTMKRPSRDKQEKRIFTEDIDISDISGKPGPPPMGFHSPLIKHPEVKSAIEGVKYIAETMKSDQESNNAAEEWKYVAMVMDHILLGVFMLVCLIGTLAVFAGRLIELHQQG
T1 sequence (P04760 23-519 limits assumed, change not shown): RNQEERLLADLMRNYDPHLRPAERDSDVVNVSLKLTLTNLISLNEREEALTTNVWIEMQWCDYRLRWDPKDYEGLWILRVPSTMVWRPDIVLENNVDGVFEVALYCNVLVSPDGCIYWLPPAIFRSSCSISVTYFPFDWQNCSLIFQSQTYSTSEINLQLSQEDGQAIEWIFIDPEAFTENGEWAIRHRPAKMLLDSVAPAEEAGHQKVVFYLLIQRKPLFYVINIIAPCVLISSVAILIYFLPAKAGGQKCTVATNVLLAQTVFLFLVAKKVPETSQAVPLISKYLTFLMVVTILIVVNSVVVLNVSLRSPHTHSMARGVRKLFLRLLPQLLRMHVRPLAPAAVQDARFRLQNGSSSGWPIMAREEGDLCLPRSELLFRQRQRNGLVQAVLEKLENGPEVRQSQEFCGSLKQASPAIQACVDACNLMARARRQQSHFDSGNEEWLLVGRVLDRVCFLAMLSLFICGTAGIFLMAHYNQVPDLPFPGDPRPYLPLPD
Method: as §1, §2, §3, §4, §5

[4] = biological target: Mouse muscle embryonic nAChR, Thr α150, Leu9′Ser mutation in M2 of the β subunit (Mus musculus, UniProt P02716+P04756+P04760+P09690, L285S); experiment: cell-based
Mouse muscle embryonic nAChR, Thr α150, Leu9′Ser mutation in M2 of the β subunit, sequence (P04756 21-457): as the sequence (P04756 21-457 limits assumed, change not shown) above
Mouse muscle embryonic nAChR, Thr α150, Leu9′Ser mutation in M2 of the β subunit, sequence (P09690 24-501 L285S): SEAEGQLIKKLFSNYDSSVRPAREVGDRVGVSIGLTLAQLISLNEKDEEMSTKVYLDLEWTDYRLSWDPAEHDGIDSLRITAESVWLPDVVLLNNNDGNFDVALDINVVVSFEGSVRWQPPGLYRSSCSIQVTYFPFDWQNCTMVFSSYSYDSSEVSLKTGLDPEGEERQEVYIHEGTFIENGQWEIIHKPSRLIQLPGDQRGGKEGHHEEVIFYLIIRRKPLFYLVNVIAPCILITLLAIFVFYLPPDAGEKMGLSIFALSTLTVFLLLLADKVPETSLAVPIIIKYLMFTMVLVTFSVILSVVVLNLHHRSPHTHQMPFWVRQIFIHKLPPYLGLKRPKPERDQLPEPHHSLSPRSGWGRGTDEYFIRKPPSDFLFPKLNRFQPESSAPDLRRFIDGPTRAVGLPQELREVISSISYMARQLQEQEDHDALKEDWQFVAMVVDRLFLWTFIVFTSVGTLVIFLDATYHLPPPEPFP
Mouse muscle embryonic nAChR, Thr α150, Leu9′Ser mutation in M2 of the β subunit, sequence (P04760 23-519): as the sequence (P04760 23-519 limits assumed, change not shown) above
Mouse muscle embryonic nAChR, Thr α150, Leu9′Ser mutation in M2 of the β subunit, sequence (P02716 25-520): as the sequence (P02716 25-520 limits assumed, change not shown) above
Method: as §1, §2
as §3, with “36:11314-22). […]” for “36:11314-22).”

SMILES	drop in hydrogen bonding strength ([1]; Tah/Thr ratio multiplied by generic 3.3-fold decrease seen with ACh) [fold]	energy corresponding to drop in hydrogen bonding strength ([1]; from corrected fold change) [kJ/mol]	Epi concentrations required by 4,5,6,7-F4-Trp α149 mutant (dose-response unsuccessful) [2]	Tah/Thr (fold increase in EC50 upon ester substitution) [1]	drop in hydrogen bonding strength [1] [fold]	energy corresponding to drop in hydrogen bonding strength [1] [kJ/mol]	EC50 [3] [µM]	EC50 [4] [µM]
Clc1ccc(C2CC3CCC2N3)cn1 (racemic) [Epi, epibatidine]	~12	6.28	above 100 μM					
CN1CCCC1c1cccnc1 (centres unmarked) [Nic, nicotine]				1.6	~5	4.18	92 ± 4	57 ± 2
